From US5185352A, “Alkoxy-4(1H)-pyridone derivatives, processes for the preparation thereof and pharmaceutical compositions containing them” (Goedecke Aktiengesellschaft, priority 1988, dated 1993)
Counter-ions that a name gives are not always drawn. Like-named read-outs stand apart in the source and are kept apart here.

Columns and labels:
[1] = system: Noradrenaline-Precontracted Aorta; assay: Endothelium-dependent smooth muscle relaxation of noradrenaline-precontracted rabbit aorta rings in an organ bath; conditions: Oryctolagus cuniculus, noradrenaline 3 × 10^-7 mol/L
Description: Rabbit aorta rings are fixed in an organ bath filled with physiological salt solution (Krebs-Henseleit) between L-shaped wires. The solution is gassed with carbogen. Contractions are initiated by 3×10^-7 noradrenaline. When the tension has reached a stable plateau, compounds of the instant invention are added. The effect of the compounds first is tested on organ preparation with functioning endothelium. In an additional experiment in order to test whether the relaxation is endothelium-dependent the compounds are tested with aorta rings with damaged endothelium. For an endothelium-dependent relaxation, effected by the endothelium-derived relaxating factor (EDRF), the following characteristics are required: absence of the effect in preparations with damaged endothelium, no inhibition of the relaxation by indomethazine and inhibition of the relaxation by NDGA (nordihydro-guaiaretic acid), methylene blue and gossypol. These criteria are completely met by the compounds listed in Table II, and one can conclude, that the compounds of the instant invention act in an unexpected manner by the release of EDRF, and thereby relax vascular smooth muscle.

[2] = molecular target: calcium- and phospholipid-dependent protein kinase (PKC); assay: Inhibition of the activity of protein kinase C (incorporation of P^32-labelled phosphate into histone H-1); type: biochemical; conditions: PKC enriched from rat brain; histone H-1 substrate; 5 min, 30° C.; pH 7.5
Source text: For the clarification of the inhibiting influence of compounds of formula I according to the present invention on the calcium- and phospholipid-dependent protein kinase (PKC), this enzyme activity was enriched from rat brain. Using the purification steps described in the literature (J. Biol. Chem., 260, 15718-15722/1985), in the case of a purification consisting of two steps, there was utilized the property of the enzyme to bind to cell membranes in the presence of calcium and to be dissolved off again by calcium chelators (EGTA). In the first enrichment step, there took place the binding of the PKC to membranes of the rat brain and in the second step on so-called inside-out vesicles or erythrocytes. After dissolving off from the erythrocyte membranes and rebuffering, the PKC preparation was present in 10 mM HEPES, 1 mM DTT, 0.1% PEG 20000, pH 7.5. Under these conditions, it could be stored at -70° C. for several months without loss of activity.
The activity of the enzyme was determined via the incorporation of P^32 -labelled phosphate into the protein histone H-1 (Sigma Type III) which can be phosphorylated by PKC.
The test thereby contains the following components: 50 mM HEPES-NaOH (pH 7.5), 5 mM magnesium chloride, 1 mM DTT, 4 μm. free calcium ions, 10 μMaTP, 1 μg phosphatidylserine, 0.2 μg 1,2-diolein, as well as 40 μg histone H-1 and optionally the test substance.
The batch is preincubated for 4 minutes at 30° C. and the reaction then started by the addition of 5 nM PKC. After incubating for 5 minutes at 30° C., the reaction is stopped with 10% TCA and the samples then filtered off. The phosphate incorporation is determined by Cerenkov counting in a scintillation counter. The kinase activity measured in the absence of the test substance was, in each case, taken as being 100% and the inhibiting action of the compounds of formula I referred thereto as percentages.

[3] = damaged endothelium, read-out: Relaxation of Noradrenaline-Precontracted Aorta, EC50, Damaged Endothelium
[4] = functioning endothelium, read-out: Relaxation of Noradrenaline-Precontracted Aorta, EC50, Functioning Endothelium

| Compound | EC50 [1, 4] [nM] | IC50 [2] [nM] | EC50 [1, 3] [nM] |
| --- | --- | --- | --- |
| CC(=O)OCC[N+](C)(C)C [Acetylcholine, reference compound] | 30 | – | > 100000 |
| CCCCCCCCCCCCCCCCCCOc1cn(Cc2ccc(Cl)cc2)c(CNCCCN(C)C)cc1=O [Example 69, 1-(4-Chlorobenzyl)-2-[N-(3-dimethylamino-propyl)aminomethyl]-5-octadecyloxy-4(1H)-pyridone difumarate 1.25 hydrate] | 30000 | 1500 | > 100000 |
| CCCCCCCCCCCCCCCCCCOc1cn(Cc2ccccc2)c(CN2CCC(CN)(c3ccccc3)CC2)cc1=O [Example 101, 1-[(1-Benzyl-5-octadecyloxy-4(1H)-pyridon-2-yl)methyl]-4-aminomethyl-4-phenylpiperidine trihydrochloride] | 20000 | 1500 | > 100000 |
| CCCCCCCCCCCCCCCCCCOc1cn(Cc2ccccc2)c(CN2CCN(Cc3ccccc3)CC2)cc1=O [Example 88, 1-[(1-Benzyl-5-octadecyloxy-4(1H)-pyridon-2-yl)methyl]-4-benzylpiperazine] | 3400 | 3000 | > 100000 |
| CCCCCCCC/C=C\CCCCCCCCOc1cn(Cc2ccccc2)c(CNCCCN(C)C)cc1=O [Example 78] | – | 4600 | – |
| CCCCCCCCCCCCCCCCCCOc1cn(Cc2ccccc2)c(CNCCCNC(C)c2ccccc2)cc1=O (racemic) [Example 83, (±)-1-Benzyl-5-octadecyloxy)-2-{N-[3-(1-phenylethyl)aminopropyl]-aminomethyl}-4(1H)-pyridone·trihydrochloride] | – | 2600 | – |
| CCCCCCCCCCCCCCCCCCOc1cn(C)c(CNCCCN)cc1=O [Example 60, 2-[N-(3-Aminopropyl)-aminomethyl]-1-methyl-5-octadecyloxy-4(1H)-pyridone trihydrochloride] | – | 2700 | – |

Continued by falling IC50 [2], values first:

| EC50 [1, 4] [nM] | IC50 [2] [nM] | Compound | EC50 [1, 3] [nM] |
| --- | --- | --- | --- |
| – | 9500 | CCCCCCCCCCCCCCCCCCOc1cn(Cc2ccccc2)c(CN(C)Cc2ccccc2)cc1=O [Example 75, 1-Benzyl-2-(N-benzyl-N-methylaminomethyl)-5-octadecyloxy-4(1H)-pyridone] | – |
| – | 2400 | CCCCCCCCCCCCCCCCCCOc1cn(Cc2ccccc2)c(CN2CCN(CCc3ccccc3)CC2)cc1=O [Example 94, 1-[(1-Benzyl-5-octadecyloxy-4(1H)-pyridone-2-yl)methyl]-4-(2-phenylethyl)piperazine·trihydrochloride·1/2 H2 O] | – |
| – | 2400 | CCCCCCCCCCCCCCCCCCOc1cn(Cc2ccc(C)cc2)c(COCCCN(C)C)cc1=O [Example 106, 2-(3-Dimethylaminopropoxymethyl)-1-(4-methylbenzyl)-5-octadecyloxy-4(1H)-pyridone dihydrochloride sesquihydrate] | – |
| 3000 | 1800 | CCCCCCCCCCCCCCCCCCOc1cn(Cc2ccccc2)c(CNCCCN(C)Cc2ccccc2)cc1=O [Example 71, 1-Benzyl-2-[N-(3-N-benzyl-N-methylaminopropyl)aminomethyl]-5-octadecyloxy-4(1H)-pyridone difumarate] | > 100000 |
| 15000 | 1400 | CCCCCCCCCCCCCCCCCCOc1cn(Cc2ccccc2)c(CNCCCN(C)C)cc1=O [Example 54, 1-Benzyl-2-[N-(3-dimethylaminopropyl)-aminomethyl]-5-octadecyloxy-4(1H)-pyridone dioxalate] | > 100000 |
